Assay results reported in patent publication US20250034182A1, “PHOSPHOLIPID COMPOUNDS AND METHODS OF MAKING AND USING THE SAME” (priority 2021, published 2025).

Tests used:
Type in all cases: cell-based
[1] = test system: HCV Replicon 1B; experiment: HCV Replicon 1B EC50 (Example Q); settings: Hepatitis C virus, 72 h, read-out: HCV Replicon 1B EC50 (nM) (per Ex. Q)
Description: (§1) Compounds were serially diluted in ten steps of 1:3 dilutions in 384-well plates. All serial dilutions were performed in four replicates per compound within the same 384-well plate. An HCV protease inhibitor ITMN-191 at […] was added as a control of 100% inhibition of HCV replication while puromycin at 10 mM was included as a control of 100% cytotoxicity. To each well of a black polystyrene 384-well plate (Greiner Bio-one, Monroe, NC), 90 μL of cell culture medium (without Geneticin) containing 2000 suspended HCV replicon cells was added with a Biotek μFlow workstation. For compound transfer into cell culture plates, 0.4 μL of compound solution from the compound serial dilution plate was transferred to the cell culture plate on a Biomek FX workstation. The DMSO concentration in the final assay wells was 0.44%. The plates were incubated for 3 days at 37° C. with 5% CO2 and 85% humidity. The HCV replicon assay was a multiplex assay, able to assess both cytotoxicity and antireplicon activity from the same well. The CC50 assay was performed first. The media in the 384-well cell culture plate was aspirated, and the wells were washed four times with 100 μL of PBS each, using a Biotek ELX405 plate washer. A volume of 50 μL of a solution containing 400 nM calcein AM (Anaspec, Fremont, CA) in 1×PBS was added to each well of the plate with a Biotek μFlow workstation. The plate was incubated for 30 min at room temperature before the fluorescence signal (excitation 490 nm, emission 520 nm) was measured with a Perkin-Elmer Envision plate reader. The EC50 assay was performed in the same wells as the CC50 assay. The calcein-PBS solution in the 384-well cell culture plate was aspirated with a Biotek ELX405 plate washer. A volume of 20 μL of Dual-Glo luciferase buffer (Promega, Madison, WI) was added to each well of the plate with a Biotek μFlow Workstation. The plate was incubated for 10 min at room temperature. A volume of 20 μL of a solution containing a 1:100 mixture of Dual-Glo Stop & Glo substrate (Promega, Madison, WI) and Dual-Glo Stop & Glo buffer (Promega, Madison, WI) was added to each well of the plate with a Biotek μFlow Workstation. The plate was then incubated at room temperature for 10 min before the luminescence signal was measured with a Perkin-Elmer Envision Plate Reader.

[2] = test system: HCV Replicon 2A; experiment: HCV Replicon 2A EC50 (Example Q); settings: Hepatitis C virus, 72 h, read-out: HCV Replicon 2A EC50 (nM) (per Ex. Q)
Description: as §1

[3] = test system: Respiratory syncytial virus recombinant with luciferase (RSV-Luc5) in HEp-2 cells; experiment: HEp-2 RSV-Luc5 384-well assay (EC50 RSVFLUC Hep2-384 v2, Example V); settings: human respiratory syncytial virus, HEp-2, 72 h, read-out: RSV Hep-2 FLuc EC50 (v2) (nM) (per Ex. V)
Summary of the method: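 HEp-2 cells (4,000/well) infected with RSV-Luc5 at MOI 0.5 in DMEM/10% FBS with compound, 10-point 1:3 dilutions, 3 days at 37 °C. Replication read by One-Glo luminescence, normalized to remdesivir (0%) and DMSO (100%). EC50 from non-linear regression as concentration giving 50% reduction.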

[4] = HCV Replicon 2A CC50, calcein AM (Example Q); settings: HCV replicon cells, calcein AM fluorescence, read-out: HCV Replicon 2A CC50 (nM) (per Ex. Q)
Description: as §1

Row | SMILES | EC50 [3] [nM] | further results
1 | CCCCCCCCCCCCCCCCC[C@@H](COP(=O)(O)OC[C@@]1(C#N)O[C@@H](c2ccc3c(N)ncnn23)[C@H](O)[C@@H]1O)OCc1cc(F)cc(C#N)c1 [Compound 74, ((2R,3S,4R)-5-(4-aminopyrrolo[2,1-f][1,2,4]triazin-7-yl)-2-cyano-3,4-dihydroxytetrahydrofuran-2-yl)methyl ((S)-2-((3-cyano-5-fluorobenzyl)oxy)nonadecyl) hydrogen phosphate] | 782 | EC50 [1]: 26200 nM; EC50 [2]: 22800 nM; CC50 at 3 days [4]: 35800 nM
2 | CCCCCCCCCCCCCCCCCCOC[C@@H](COP(=O)(O)OC[C@@]1(C#N)O[C@@H](c2ccc3c(N)ncnn23)[C@H](O)[C@@H]1O)Oc1ccc(C#N)nc1 [Compound 72, ((2R,3S,4R,5S)-5-(4-aminopyrrolo[2,1-f][1,2,4]triazin-7-yl)-2-cyano-3,4-dihydroxytetrahydrofuran-2-yl)methyl ((S)-2-((6-cyanopyridin-3-yl)oxy)-3-(octadecyloxy)propyl) hydrogen phosphate] | 45 | EC50 [1]: 465 nM; EC50 [2]: > 44400 nM; CC50 at 3 days [4]: > 44400 nM
3 | CCCCCCCCCCCCCCOC[C@H](COP(=O)(O)OC[C@@]1(C#N)O[C@@H](c2ccc3c(N)ncnn23)[C@H](O)[C@@H]1O)Oc1cc(C#N)ccn1 [Compound 69, ((2R,3S,4R)-5-(4-aminopyrrolo[2,1-f][1,2,4]triazin-7-yl)-2-cyano-3,4-dihydroxytetrahydrofuran-2-yl)methyl ((R)-2-((4-cyanopyridin-2-yl)oxy)-3-(tetradecyloxy)propyl) hydrogen phosphate] | 674 | –
4 | CCCCCCCCCCCCCCCCCCC[C@H](COP(=O)(O)OC[C@@]1(C#N)O[C@@H](c2ccc3c(N)ncnn23)[C@H](O)[C@@H]1O)Oc1ccc(C#N)c(OC(C)C)c1 [Compound 38, ((2R,3S,4R,5S)-5-(4-aminopyrrolo[2,1-f][1,2,4]triazin-7-yl)-2-cyano-3,4-dihydroxytetrahydrofuran-2-yl)methyl ((R)-2-(4-cyano-3-isopropoxyphenoxy)henicosyl) hydrogen phosphate] | 212 | –
5 | CCCCCCCCCCCCCCCCCCOC[C@H](COP(=O)(O)OC[C@@]1(C#N)O[C@@H](c2ccc3c(N)ncnn23)[C@H](O)[C@@H]1O)OCc1ccc(C#N)c(-n2cncn2)c1 [Compound 16, ((2R,3S,4R,5S)-5-(4-aminopyrrolo[2,1-f][1,2,4]triazin-7-yl)-2-cyano-3,4-dihydroxytetrahydrofuran-2-yl)methyl ((R)-2-((4-cyano-3-(1H-1,2,4-triazol-1-yl)benzyl)oxy)-3-(octadecyloxy)propyl) hydrogen phosphate] | 36 | –
6 | CCCCCCCCCCCCCCCCCCOCC(COc1cc(F)cc(C#N)c1)COP(=O)(O)OC[C@@]1(C#N)O[C@@H](c2ccc3c(N)ncnn23)[C@H](O)[C@@H]1O (stereo partly drawn) [Compound 43, ((2R,3S,4R,5S)-5-(4-aminopyrrolo[2,1-f][1,2,4]triazin-7-yl)-2-cyano-3,4-dihydroxytetrahydrofuran-2-yl)methyl (3-(3-cyano-5-fluorophenoxy)-2-((octadecyloxy)methyl)propyl) hydrogen phosphate] | 707 | –
7 | CCCCCCCCCCCCCCCCCCC[C@H](COP(=O)(O)OC[C@@]1(C#N)O[C@@H](c2ccc3c(N)ncnn23)[C@H](O)[C@@H]1O)OCc1cc(F)cc(C#N)c1 [Compound 25, ((2R,3S,4R,5S)-5-(4-aminopyrrolo[2,1-f][1,2,4]triazin-7-yl)-2-cyano-3,4-dihydroxytetrahydrofuran-2-yl)methyl ((R)-2-((3-cyano-5-fluorobenzyl)oxy)henicosyl) hydrogen phosphate] | 2920 | –
8 | CCCCCCCCCCCCCCCCCCCC[C@H](COP(=O)(O)OC[C@@]1(C#N)O[C@@H](c2ccc3c(N)ncnn23)[C@H](O)[C@@H]1O)OCc1cc(F)cc(C#N)c1 [Compound 34, ((2R,3S,4R)-5-(4-aminopyrrolo[2,1-f][1,2,4]triazin-7-yl)-2-cyano-3,4-dihydroxytetrahydrofuran-2-yl)methyl ((R)-2-((3-cyano-5-fluorobenzyl)oxy)docosyl) hydrogen phosphate] | 1890 | –
9 | CCCCCCCCCCCCCCCCCCOC[C@H](COP(=O)(O)OC[C@@]1(C#N)O[C@@H](c2ccc3c(N)ncnn23)[C@H](O)[C@@H]1O)Oc1ccc(C#N)c(OC(C)C)c1 [Compound 23, ((2R,3S,4R,5S)-5-(4-aminopyrrolo[2,1-f][1,2,4]triazin-7-yl)-2-cyano-3,4-dihydroxytetrahydrofuran-2-yl)methyl ((R)-2-(4-cyano-3-isopropoxyphenoxy)-3-(octadecyloxy)propyl) hydrogen phosphate] | 71 | –
10 | CCCCCCCCCCCCCCCCCCC[C@H](COP(=O)(O)OC[C@@]1(C#N)O[C@@H](c2ccc3c(N)ncnn23)[C@H](O)[C@@H]1O)Oc1cc(OC)c(C#N)c(OC)c1 [Compound 39, ((2R,3S,4R,5S)-5-(4-aminopyrrolo[2,1-f][1,2,4]triazin-7-yl)-2-cyano-3,4-dihydroxytetrahydrofuran-2-yl)methyl ((R)-2-(4-cyano-3,5-dimethoxyphenoxy)henicosyl) hydrogen phosphate] | 327 | –
11 | CCCCCCCCCCCCCCCCOC[C@@H](COP(=O)(O)OC[C@@]1(C#N)O[C@@H](c2ccc3c(N)ncnn23)[C@H](O)[C@@H]1O)OCc1cc(F)cc(C#N)c1 [Compound 88, ((2R,3S,4R,5S)-5-(4-aminopyrrolo[2,1-f][1,2,4]triazin-7-yl)-2-cyano-3,4-dihydroxytetrahydrofuran-2-yl)methyl ((S)-2-((3-cyano-5-fluorobenzyl)oxy)-3-(hexadecyloxy)propyl) hydrogen phosphate] | 191 | –
12 | CCCCCCCCCCCCCCCCCCC[C@H](COP(=O)(O)OC[C@@]1(C#N)O[C@@H](c2ccc3c(N)ncnn23)[C@H](O)[C@@H]1O)OCc1ccc(C#N)c(OC(C)C)c1 [Compound 28, ((2R,3S,4R,5S)-5-(4-aminopyrrolo[2,1-f][1,2,4]triazin-7-yl)-2-cyano-3,4-dihydroxytetrahydrofuran-2-yl)methyl ((R)-2-((4-cyano-3-isopropoxybenzyl)oxy)henicosyl) hydrogen phosphate] | 353 | –
13 | CCCCCCCCCCCCCCCCCC[C@H](COP(=O)(O)OC[C@@]1(C#N)O[C@@H](c2ccc3c(N)ncnn23)[C@H](O)[C@@H]1O)OCc1cc(F)cc(C#N)c1 [Compound 84, ((2R,3S,4R,5S)-5-(4-aminopyrrolo[2,1-f][1,2,4]triazin-7-yl)-2-cyano-3,4-dihydroxytetrahydrofuran-2-yl)methyl ((R)-2-((3-cyano-5-fluorobenzyl)oxy)icosyl) hydrogen phosphate] | 325 | –
14 | CCCCCCCCCCCCCCCCC[C@H](COP(=O)(O)OC[C@@]1(C#N)O[C@@H](c2ccc3c(N)ncnn23)[C@H](O)[C@@H]1O)OCc1cc(Cl)cc(C#N)c1 [Compound 76, ((2R,3S,4R)-5-(4-aminopyrrolo[2,1-f][1,2,4]triazin-7-yl)-2-cyano-3,4-dihydroxytetrahydrofuran-2-yl)methyl ((R)-2-((3-chloro-5-cyanobenzyl)oxy)nonadecyl) hydrogen phosphate] | 382 | –
15 | CCCCCCCCCCCCCCCCCCOC[C@H](COP(=O)(O)OC[C@@]1(C#N)O[C@@H](c2ccc3c(N)ncnn23)[C@H](O)[C@@H]1O)OCc1ccc(C#N)nc1 [Compound 19, ((2R,3S,4R,5S)-5-(4-aminopyrrolo[2,1-f][1,2,4]triazin-7-yl)-2-cyano-3,4-dihydroxytetrahydrofuran-2-yl)methyl ((R)-2-((6-cyanopyridin-3-yl)methoxy)-3-(octadecyloxy)propyl) hydrogen phosphate] | 60 | –
16 | CCCCCCCCCCCCCCOC[C@H](COP(=O)(O)OC[C@@]1(C#N)O[C@@H](c2ccc3c(N)ncnn23)[C@H](O)[C@@H]1O)OCc1ccc(C#N)cc1F [Compound 75, ((2R,3S,4R,5S)-5-(4-aminopyrrolo[2,1-f][1,2,4]triazin-7-yl)-2-cyano-3,4-dihydroxytetrahydrofuran-2-yl)methyl ((R)-2-((4-cyano-2-fluorobenzyl)oxy)-3-(tetradecyloxy)propyl) hydrogen phosphate] | 446 | –
